Reference: article PMC10716780, “The multistep oxidation of cholesterol to pregnenolone by human cytochrome P450 11A1 is highly processive” (The Journal of Biological Chemistry, 2023)

Target: T1, human P450 11A1 (Homo sapiens, UniProt P05108)
T1 sequence (P05108 41-521 limits assumed): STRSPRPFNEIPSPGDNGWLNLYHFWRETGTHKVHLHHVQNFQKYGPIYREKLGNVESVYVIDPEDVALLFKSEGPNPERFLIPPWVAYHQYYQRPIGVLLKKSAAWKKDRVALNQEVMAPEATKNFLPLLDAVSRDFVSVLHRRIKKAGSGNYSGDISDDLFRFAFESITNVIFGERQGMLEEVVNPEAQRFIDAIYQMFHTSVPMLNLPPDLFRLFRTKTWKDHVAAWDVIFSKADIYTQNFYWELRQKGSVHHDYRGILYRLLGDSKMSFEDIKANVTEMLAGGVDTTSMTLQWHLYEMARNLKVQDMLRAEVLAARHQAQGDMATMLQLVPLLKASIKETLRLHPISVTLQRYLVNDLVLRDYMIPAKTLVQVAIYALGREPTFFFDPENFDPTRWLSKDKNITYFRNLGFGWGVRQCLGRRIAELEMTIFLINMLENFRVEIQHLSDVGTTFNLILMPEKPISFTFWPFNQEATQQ
T1 sequence (P00257 59-186 partner): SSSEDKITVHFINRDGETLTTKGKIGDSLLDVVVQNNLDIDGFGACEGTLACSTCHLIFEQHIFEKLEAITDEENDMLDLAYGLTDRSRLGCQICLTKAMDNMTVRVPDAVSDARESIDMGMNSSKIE
Assay: Single-turnover kinetics of P450 11A1 with [1,2-3H]-cholesterol (radio-HPLC)
Format: biochemical
Design: M A S T R S P R P F N E I P S P G D N; Met-Ala (N-terminal start residues in place of the transit peptide and Ile40) (N); made in house; host or cells: E. coli (P450 11A1 in C41(DE3); Adx and AdR in E. coli)
Experimental: In this reaction, a 5 μM complex of P450 11A1 and 4.5 μM cholesterol was assembled, and Adx was added at either equimolar (low, 5 μM) or 10-fold excess (high, 50 μM) concentrations (along with 10 μM AdR). The complex was diluted 2-fold (with 5 mM NADPH) in the apparatus to initiate the reaction, which was quenched at variable times. The products of the reaction were extracted and quantified by radio-HPLC. […] (The analysis of kinetic modeling is described below.)
P450 11A1 (5 μM) was reconstituted with its redox partners AdR (10 μM) and Adx (5 μM) on ice (10 min) prior to dilution in potassium Hepes buffer (50 mM, pH 7.4) and H2O and the addition of ^3H-cholesterol substrate (4.5 μM, 0.5 Ci/mmol). The concentration of substrate was deliberately kept slightly below the enzyme concentration to ensure that single-turnover conditions were strictly followed. The mixture (0.75 ml) was preincubated (37 °C, 5 min) in a shaking water bath prior to initiation with an equal volume of NADPH solution (5 mM, from a 10 mM stock in 50 mM potassium Hepes buffer, pH 7.4), thus reducing the concentrations of all enzymes and substrate to one-half their starting concentrations. After completing the desired incubation time, an aliquot (200 μl) was removed from the incubation and added to vials containing aqueous HCl (800 μl, 1 M). The quenched reactions were mixed with a vortex device and placed on ice. When the time course was complete, the quenched reactions were mixed with CH2Cl2 (5 ml) to extract reaction products and were centrifuged (10^3g, 5 min, 23 °C) to separate layers, and the organic (bottom) layers were transferred (4 ml) to fresh glass vials. The extraction process was repeated and the two extracts (2 × 4 ml) from each sample were combined to maximize product recovery. Samples (8 ml) were brought to dryness under a stream of nitrogen, and the dried residues were dissolved in CH3OH (75 μl) and transferred to autosampler vials for analysis by radio-HPLC.
Enzyme and NADPH solutions were prepared as described for the benchtop experiments (above) but with the modification that the concentration of Adx was increased to 50 μM (from 5 μM). […] The rapid quench-flow is a rapid mixing device that combines equal volumes (∼19 μl) of two solutions (P450 and NADPH, held at 37 °C) into a central internal chamber to initiate a reaction. After the preset reaction time is completed, the mixture (∼38 μl) is then rapidly combined with a quench solution (1 M HCl, ∼160 μl), expelled from the apparatus, and collected in vials. Utilizing this experimental design, the reaction of enzyme-substrate complex (P450 11A1-Adx-AdR and ^3H-cholesterol) was initiated with NADPH on a variable timescale (0–90 s), pooling five replicates of each time point to maximize sensitivity. The products of each quenched reaction (∼1 ml) were extracted with two volumes (5 ml) of CH2Cl2, brought to dryness, and dissolved in CH3OH as described for the benchtop experiments.
Samples (held at 4 °C) were injected (50 μl) using a Agilent 1100 Series HPLC system on a NovaPak (Waters) octadecylsilane (C18) 3.9 mm × 100 mm (4 μm) column (held at 25 °C) with a flow rate of 1.0 ml min^−1 using a gradient mobile phase of (A) H2O and (B) CH3CN as follows (all in % B, v/v): 0 min, 70%; 10 min, 100%; 35.5 min, 100%; 37 min, 30%; and 40 min, 70%).

[1] = 10-fold excess (high) Adx, time 0 s
[2] = 10-fold excess (high) Adx, time 0.25 s
[3] = 10-fold excess (high) Adx, time 0.5 s
[4] = 10-fold excess (high) Adx, time 0.75 s
[5] = 10-fold excess (high) Adx, time 1 s
[6] = 10-fold excess (high) Adx, time 2 s
[7] = 10-fold excess (high) Adx, time 2.5 s
[8] = 10-fold excess (high) Adx, time 3.5 s
[9] = 10-fold excess (high) Adx, time 5 s
[10] = 10-fold excess (high) Adx, time 6 s
[11] = 10-fold excess (high) Adx, time 7.5 s
[12] = 10-fold excess (high) Adx, time 10 s
[13] = 10-fold excess (high) Adx, time 15 s
[14] = 10-fold excess (high) Adx, time 20 s
[15] = 10-fold excess (high) Adx, time 30 s
[16] = 10-fold excess (high) Adx, time 45 s
[17] = 10-fold excess (high) Adx, time 60 s
[18] = 10-fold excess (high) Adx, time 90 s
[19] = second table, headed 10-fold excess (high) Adx, time 0 s
[20] = second table, headed 10-fold excess (high) Adx, time 10 s
[21] = second table, headed 10-fold excess (high) Adx, time 25 s
[22] = second table, headed 10-fold excess (high) Adx, time 50 s
[23] = second table, headed 10-fold excess (high) Adx, time 75 s
[24] = second table, headed 10-fold excess (high) Adx, time 100 s
[25] = second table, headed 10-fold excess (high) Adx, time 200 s
[26] = second table, headed 10-fold excess (high) Adx, time 500 s

Compound	concentration in single-turnover reaction [1]	concentration in single-turnover reaction [2]	concentration in single-turnover reaction [3]	concentration in single-turnover reaction [4]	concentration in single-turnover reaction [5]	concentration in single-turnover reaction [6]	concentration in single-turnover reaction [7]	concentration in single-turnover reaction [8]	concentration in single-turnover reaction [9]	concentration in single-turnover reaction [10]	concentration in single-turnover reaction [11]	concentration in single-turnover reaction [12]	concentration in single-turnover reaction [13]	concentration in single-turnover reaction [14]	concentration in single-turnover reaction [15]	concentration in single-turnover reaction [16]	concentration in single-turnover reaction [17]	concentration in single-turnover reaction [18]	concentration in single-turnover reaction [19]	concentration in single-turnover reaction [20]	other results
CC(C)CC[C@@H](O)[C@](C)(O)[C@H]1CC[C@H]2[C@@H]3CC=C4C[C@@H](O)CC[C@]4(C)[C@H]3CC[C@]12C [20R,22R-(OH)2 Chol, (20R,22R)-Cholest-5-ene-3β,20,22-triol]	0 µM	0 µM	0.1366 µM	0.2407 µM	0.2278 µM	0.1672 µM	0.2051 µM	0.184 µM	0.1911 µM	0.1865 µM	0.2095 µM	0.1817 µM	0.1522 µM	0.1106 µM	0.03422 µM	0 µM	0 µM	0 µM	0 µM	0.239 µM	concentration in single-turnover reaction [21]: 0.1619 µM; concentration in single-turnover reaction [22]: 0.07194 µM; concentration in single-turnover reaction [23]: 0.04787 µM; concentration in single-turnover reaction [24]: 0 µM; concentration in single-turnover reaction [25]: 0 µM; concentration in single-turnover reaction [26]: 0 µM
CC(C)CC[C@@H](O)[C@@H](C)[C@H]1CC[C@H]2[C@@H]3CC=C4C[C@@H](O)CC[C@]4(C)[C@H]3CC[C@]12C [22R-OH Chol, 22R-hydroxycholesterol]	0 µM	0.1665 µM	0.3411 µM	0.2577 µM	0.2098 µM	0.2144 µM	0.1649 µM	0.1652 µM	0.1576 µM	0.1666 µM	0.1648 µM	0.1591 µM	0.1351 µM	0.101 µM	0.09739 µM	0.06928 µM	0.06822 µM	0.05063 µM	0 µM	0.2262 µM	concentration in single-turnover reaction [21]: 0.1763 µM; concentration in single-turnover reaction [22]: 0.1172 µM; concentration in single-turnover reaction [23]: 0.06255 µM; concentration in single-turnover reaction [24]: 0 µM; concentration in single-turnover reaction [25]: 0 µM; concentration in single-turnover reaction [26]: 0 µM
CC(C)CCC[C@@H](C)[C@H]1CC[C@H]2[C@@H]3CC=C4C[C@@H](O)CC[C@]4(C)[C@H]3CC[C@]12C [Cholesterol]	4.5 µM	4.334 µM	4.022 µM	3.865 µM	3.748 µM	3.432 µM	3.365 µM	3.113 µM	2.84 µM	2.762 µM	2.508 µM	1.814 µM	1.24 µM	0.9421 µM	0.6054 µM	0.4283 µM	0.3162 µM	0.26 µM	4.5 µM	2.794 µM	time to complete reaction, low Adx (5 μM Adx): 3 min; time to complete reaction, excess Adx (50 μM Adx): 1 min; first-order decay, rate of 22R-hydroxylation (k2), single exponential fit (10-fold (50 μM) excess Adx): 0.09 s⁻¹; concentration in single-turnover reaction [21]: 1.649 µM; concentration in single-turnover reaction [22]: 0.7284 µM; concentration in single-turnover reaction [23]: 0.3322 µM; concentration in single-turnover reaction [24]: 0.1591 µM; concentration in single-turnover reaction [25]: 0 µM; concentration in single-turnover reaction [26]: 0 µM
CC(=O)[C@H]1CC[C@H]2[C@@H]3CC=C4C[C@@H](O)CC[C@]4(C)[C@H]3CC[C@]12C [Pregnenolone]	0 µM	0 µM	0 µM	0.1368 µM	0.3142 µM	0.6865 µM	0.7647 µM	1.037 µM	1.311 µM	1.385 µM	1.618 µM	2.345 µM	2.973 µM	3.346 µM	3.763 µM	4.002 µM	4.116 µM	4.189 µM	0 µM	1.241 µM	concentration in single-turnover reaction [21]: 2.512 µM; concentration in single-turnover reaction [22]: 3.582 µM; concentration in single-turnover reaction [23]: 4.057 µM; concentration in single-turnover reaction [24]: 4.341 µM; concentration in single-turnover reaction [25]: 4.5 µM; concentration in single-turnover reaction [26]: 4.5 µM
